Results as given in the supplement of paper PMC11208160.
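Further: IS621 recombinase and bridge RNA in Escherichia coli cells.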

Experiment: recombinant barcode read abundance after kanamycin selection (control-corrected) (log10(CPM+1)); higher = more efficient recombination; sequences stand for … in AGTGCAGAGAAAATCGGCCAGTTTTCTCTGCCTGCAGTCCGCATGCCGT…AGATTTATGCAGCGGACTGCCTTTCTCCCAAAGTGATAAACCGGACAGTATCATGGACCGGTTTTCCCGGTAATCCGTATTTGCAAGGTTGGTTTCACT; site = the 11-nt target
In short: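 A vector carrying a T7-inducible recombinase and the last 73 bp of the bridge RNA received, by Gibson cloning, oligos encoding a promoter, target, barcode and the first 104 bridge RNA bases under J23119. The pooled constructs entered E. coli together with a donor plasmid by electroporation. Selection used chloramphenicol/ampicillin/kanamycin with 0.1 mM IPTG, with chloramphenicol/ampicillin LB agar as the control, each in two replicates. Recombination efficiency is the averaged, control-corrected counts-per-million of barcodes at recombinant junctions, reported as log10(CPM+1).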
With “AGTGCGCCTTGGGTTCTAACCTGTTGCTA (site AGTTCGCCTTA)” the “recombinant barcode read abundance (log10)” value was 0.29. With “AGTGTCGCTTGGGTTCTAACCTGTTGCGG (site AGTATCGCTCC)” the “recombinant barcode read abundance (log10)” value was 0.96. With “AGTGTCGCTTGGGTTCTAACCTGTTGCGG (site AGTCTCGCTCC)” the “recombinant barcode read abundance (log10)” value was 0.0162. For “AGTGTCGCTTGGGTTCTAACCTGTTGCGG (site AGTGTCGCTCC)”, the “recombinant barcode read abundance (log10)” value was 1.6. For “AGTGTCGCTTGGGTTCTAACCTGTTGCGG (site AGTTTCGCTCC)”, the “recombinant barcode read abundance (log10)” value was 0.301. In the case of “AGTTCTCCTTGGGTTCTAACCTGTTGCCT (site AGTTCTCCTAG)”, the “recombinant barcode read abundance (log10)” value is reported as 0.0504. With “AGTTCTCCTTGGGTTCTAACCTGTTGCCT (site CGTTCTCCTAG)” the “recombinant barcode read abundance (log10)” value was 0.415. With “AGTTCTCCTTGGGTTCTAACCTGTTGCCT (site GGTTCTCCTAG)” the “recombinant barcode read abundance (log10)” value was 0.207. For “AGTTCTCCTTGGGTTCTAACCTGTTGCCT (site TGTTCTCCTAG)”, the “recombinant barcode read abundance (log10)” value was 0.456. In the case of “AGTTGCACTTGGGTTCTAACCTGTTGCCT (site AGTTACACTAG)”, the “recombinant barcode read abundance (log10)” value is reported as 0.14. With “AGTTGCACTTGGGTTCTAACCTGTTGCCT (site AGTTCCACTAG)” the “recombinant barcode read abundance (log10)” value was 0.11. With “AGTTGCACTTGGGTTCTAACCTGTTGCCT (site AGTTGCACTAG)” the “recombinant barcode read abundance (log10)” value was 0.423. In the case of “AGTTGCACTTGGGTTCTAACCTGTTGCCT (site AGTTTCACTAG)”, the “recombinant barcode read abundance (log10)” value is reported as 0.0516. In the case of “AGTTTAACTTGGGTTCTAACCTGTTGCAC (site AGTTTAACTGT)”, the “recombinant barcode read abundance (log10)” value is reported as 0.0458. In the case of “AGTTTAACTTGGGTTCTAACCTGTTGCAC (site GTCGGTCCTCG)”, the “recombinant barcode read abundance (log10)” value is reported as 0.258. For “ATAAAAGCTTGGGTTCTAACCTGTTGCCT (site ATAAAAGCTAG)”, the “recombinant barcode read abundance (log10)” value was 1.5. In the case of “ATAAAAGCTTGGGTTCTAACCTGTTGCCT (site ATAACAGCTAG)”, the “recombinant barcode read abundance (log10)” value is reported as 0.0538. With “ATAAAAGCTTGGGTTCTAACCTGTTGCCT (site ATAAGAGCTAG)” the “recombinant barcode read abundance (log10)” value was 0.172. In the case of “ATAAAAGCTTGGGTTCTAACCTGTTGCCT (site ATAATAGCTAG)”, the “recombinant barcode read abundance (log10)” value is reported as 0.59. In the case of “ATAAACCCTTGGGTTCTAACCTGTTGCAT (site AGAATCCCTAT)”, the “recombinant barcode read abundance (log10)” value is reported as 0.324. For “ATAAACCCTTGGGTTCTAACCTGTTGCAT (site ATAAACCCTAT)”, the “recombinant barcode read abundance (log10)” value was 2.4. In the case of “ATAACCTCTTGGGTTCTAACCTGTTGCCT (site ATAACCTCTAG)”, the “recombinant barcode read abundance (log10)” value is reported as 2. With “ATAACCTCTTGGGTTCTAACCTGTTGCCT (site GAGGTGCCTCT)” the “recombinant barcode read abundance (log10)” value was 0. In the case of “ATAAGACCTTGGGTTCTAACCTGTTGCCT (site ATAAGACCTAG)”, the “recombinant barcode read abundance (log10)” value is reported as 2.24. In the case of “ATAAGACCTTGGGTTCTAACCTGTTGCCT (site ATGAGAGCTAG)”, the “recombinant barcode read abundance (log10)” value is reported as 0.229. For “ATAAGGCCTTGGGTTCTAACCTGTTGCCT (site ATAAAGCCTAG)”, the “recombinant barcode read abundance (log10)” value was 0.102. With “ATAAGGCCTTGGGTTCTAACCTGTTGCCT (site ATAAGGCCTAG)” the “recombinant barcode read abundance (log10)” value was 0.154. In the case of “ATAGAATCTTGGGTTCTAACCTGTTGCTC (site ATAGAATCTGA)”, the “recombinant barcode read abundance (log10)” value is reported as 1.96. With “ATAGAATCTTGGGTTCTAACCTGTTGCTC (site TGCCTGCCTCT)” the “recombinant barcode read abundance (log10)” value was 0.204. For “ATAGACCCTTGGGTTCTAACCTGTTGCCT (site ATAGACCCTAG)”, the “recombinant barcode read abundance (log10)” value was 2.36. For “ATAGACCCTTGGGTTCTAACCTGTTGCCT (site CTAGACCCTAG)”, the “recombinant barcode read abundance (log10)” value was 0.918. With “ATAGACCCTTGGGTTCTAACCTGTTGCCT (site GTAGACCCTAG)” the “recombinant barcode read abundance (log10)” value was 0.599. For “ATAGACCCTTGGGTTCTAACCTGTTGCCT (site TTAGACCCTAG)”, the “recombinant barcode read abundance (log10)” value was 1.49. With “ATAGAGTCTTGGGTTCTAACCTGTTGCCT (site ACAGATTCTAG)” the “recombinant barcode read abundance (log10)” value was 0.143. In the case of “ATAGAGTCTTGGGTTCTAACCTGTTGCCT (site ATAGAGTCTAG)”, the “recombinant barcode read abundance (log10)” value is reported as 2.64. In the case of “ATAGGGTCTTGGGTTCTAACCTGTTGCCT (site AAAGGGTCTAG)”, the “recombinant barcode read abundance (log10)” value is reported as 1.04. In the case of “ATAGGGTCTTGGGTTCTAACCTGTTGCCT (site ACAGGGTCTAG)”, the “recombinant barcode read abundance (log10)” value is reported as 1.85. With “ATAGGGTCTTGGGTTCTAACCTGTTGCCT (site AGAGGGTCTAG)” the “recombinant barcode read abundance (log10)” value was 0.211. In the case of “ATAGGGTCTTGGGTTCTAACCTGTTGCCT (site ATAGGGTCTAG)”, the “recombinant barcode read abundance (log10)” value is reported as 2.5. For “ATAGGTCCTTGGGTTCTAACCTGTTGCCT (site ATAGGTCCTAG)”, the “recombinant barcode read abundance (log10)” value was 1.58. With “ATAGGTCCTTGGGTTCTAACCTGTTGCCT (site ATCGGTCCTAG)” the “recombinant barcode read abundance (log10)” value was 0.202. For “ATAGGTCCTTGGGTTCTAACCTGTTGCCT (site ATGGGTCCTAG)”, the “recombinant barcode read abundance (log10)” value was 0.189. With “ATAGGTCCTTGGGTTCTAACCTGTTGCCT (site ATTGGTCCTAG)” the “recombinant barcode read abundance (log10)” value was 0.309.
